# Molecular target: T1, rat metabotropic glutamate receptor 5 (mGluR5) (Rattus norvegicus, UniProt P31424)
# T1 construct: expressed in transfected cells; host or cells: HEK 293
# Assay: Calcium mobilization assay (FLIPR) for negative or positive allosteric activity, HEK 293 cells
# Assay type: cell-based
# Conditions: HEK293, negative allosteric modulation, inhibition of EC80 glutamate response; read-out: FLIPR maximum inhibition
# Procedure: The cDNA for rat metabotropic glutamate receptor 5 (mGluR5) was a generous gift from S. Nakanishi (Kyoto University, Kyoto, Japan). The mGluR5 was stably expressed in a HEK 293 cell line and grown in Dulbecco's Modified Eagle Medium (DMEM) (Invitrogen, Carlsbad, Calif.) with supplements (10% bovine calf serum, 4 mM glutamine, 100 units/mL penicillin, 100 μg/mL streptomycin and 0.75 mM G1418) at 37° C., 5% CO2. Twenty-four hours prior to assay, cells were seeded into 384-well black wall microtiter plates coated with poly-D-lysine. Just prior to assay, media was aspirated and cells dye-loaded (25 μL/well) with 3 μM Fluo-4/0.01% pluronic acid in assay buffer (Hank's Balanced Saline Solution (HBSS)): 150 mM NaCl, 5 mM KCl, 1 mM CaCl2, 1 mM MgCl2, plus 20 mM N-2-Hydroxyethylpiperazine-N′-2-ethanesulfonic acid (HEPES), pH 7.4, 0.1% bovine serum albumin (BSA) and 2.5 mM probenicid) for 1 hour in 5% CO2 at 37° C. After excess dye was discarded, cells were washed in assay buffer and layered with a final volume equal to 30 μL/well. Basal fluorescence is monitored in a fluorometric imaging plate reader (FLIPR) (Molecular Devices, Sunnyvale, Calif.) with an excitation wavelength of 488 nm and an emission range of 500 to 560 nm. Laser excitation energy was adjusted so that basal fluorescence readings were approximately 10,000 relative fluorescent units. Cells were stimulated with an EC20 or an EC80 concentration of glutamate in the presence of a compound to be tested, both diluted in assay buffer, and relative fluorescent units were measured at defined intervals (exposure=0.6 sec) over a 3 min period at room temperature. Basal readings derived from negative controls were subtracted from all samples. Maximum change in fluorescence was calculated for each well. Concentration-response curves derived from the maximum change in fluorescence were analyzed by nonlinear regression (Hill equation). A negative modulator can be identified from these concentration-response curves if a compound produces a concentration dependent inhibition of the EC80 glutamate response. […] Examples 11-163 also were tested in the above assay.
# A positive modulator can be identified from these concentration-response curves if a compound produces a concentration dependent increase in the EC20 glutamate response.
# T1 sequence (P31424 21-1171 isoform P31424-2 limits assumed): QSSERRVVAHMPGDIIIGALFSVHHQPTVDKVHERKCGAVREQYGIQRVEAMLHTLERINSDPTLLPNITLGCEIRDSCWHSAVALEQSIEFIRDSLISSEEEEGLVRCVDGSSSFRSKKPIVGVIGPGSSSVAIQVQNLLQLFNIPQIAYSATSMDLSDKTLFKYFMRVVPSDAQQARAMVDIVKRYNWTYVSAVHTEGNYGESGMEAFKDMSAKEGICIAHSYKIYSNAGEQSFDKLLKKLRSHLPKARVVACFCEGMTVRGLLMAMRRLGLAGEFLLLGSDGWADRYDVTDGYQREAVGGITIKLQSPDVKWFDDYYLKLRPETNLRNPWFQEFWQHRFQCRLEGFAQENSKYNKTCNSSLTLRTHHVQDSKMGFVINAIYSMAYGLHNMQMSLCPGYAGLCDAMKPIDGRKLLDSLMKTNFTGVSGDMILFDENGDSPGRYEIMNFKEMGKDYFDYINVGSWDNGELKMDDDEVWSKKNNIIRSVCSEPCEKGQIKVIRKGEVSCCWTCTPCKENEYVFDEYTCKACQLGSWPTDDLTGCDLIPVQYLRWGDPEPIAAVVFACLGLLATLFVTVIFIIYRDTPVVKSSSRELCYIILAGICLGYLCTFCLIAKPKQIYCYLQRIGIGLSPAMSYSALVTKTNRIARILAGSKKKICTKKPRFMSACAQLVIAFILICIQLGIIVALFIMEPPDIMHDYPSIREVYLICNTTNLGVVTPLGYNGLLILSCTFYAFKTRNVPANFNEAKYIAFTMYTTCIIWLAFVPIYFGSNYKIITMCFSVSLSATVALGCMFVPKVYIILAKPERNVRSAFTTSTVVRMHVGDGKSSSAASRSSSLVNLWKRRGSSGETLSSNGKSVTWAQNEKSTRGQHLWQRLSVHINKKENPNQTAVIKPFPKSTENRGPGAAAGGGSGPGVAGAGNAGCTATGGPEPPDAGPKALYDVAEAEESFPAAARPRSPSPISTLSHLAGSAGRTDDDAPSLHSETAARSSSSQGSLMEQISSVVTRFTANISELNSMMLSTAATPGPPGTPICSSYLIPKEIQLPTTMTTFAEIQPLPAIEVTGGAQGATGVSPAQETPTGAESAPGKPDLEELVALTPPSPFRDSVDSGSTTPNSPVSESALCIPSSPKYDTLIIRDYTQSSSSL
row,SMILES,Emax [%]
1,"O=C(NC12CC3CC(C1)CC(NC(=O)c1cccc(Cl)c1)(C3)C2)c1cccc(Cl)c1 [Example 3, N,N′-(1,3-adamantylene)bis(3-chloro-benzamide)]",90 to 99
2,"O=C(NC12CC3CC(C1)CC(NC(=O)c1ccncc1)(C3)C2)c1ccncc1 [Example 4, N,N′-(1,3-adamantylene)bis(4-pyridinecarboxamide)]",90 to 99
3,"N#Cc1cccc(C(=O)NC23CC4CC(C2)CC(NC(=O)c2cccc(C#N)c2)(C4)C3)c1 [Example 5, N,N′-(1,3-adamantylene)bis(3-cyano-benzamide)]",90 to 99
4,"O=C(NC12CC3CC(C1)CC(NC(=O)c1ccc4ccccc4n1)(C3)C2)c1ccc2ccccc2n1 [Example 12, N,N′-(1,3-adamantylene)bis(quinoline-2-carboxamide)]",63 to 99
5,"O=C(NC12CC3CC(C1)CC(NC(=O)c1cnc4ccccc4n1)(C3)C2)c1cnc2ccccc2n1 [Example 13, N,N′-(1,3-adamantylene)bis(quinoxaline-2-carboxamide)]",63 to 99
6,"O=C(NC12CC3CC(C1)CC(NC(=O)c1cccs1)(C3)C2)c1cccs1 [Example 14, N,N′-(1,3-adamantylene)bis(thiophene-2-carboxamide)]",63 to 99
7,"O=C(NC12CC3CC(C1)CC(NC(=O)c1cccc(F)c1)(C3)C2)c1cccc(F)c1 [Example 15, N,N′-(1,3-adamantylene)bis(3-fluorobenzamide)]",63 to 99
8,"Cc1cccc(C(=O)NC23CC4CC(C2)CC(NC(=O)c2cccc(C)c2)(C4)C3)c1 [Example 16, N,N′-(1,3-adamantylene)bis(3-menthylbenzamide)]",63 to 99

# Results, then the molecule that gave them:
row,Emax [%],SMILES
1,90 to 99,"O=C(NC12CC3CC(C1)CC(NC(=O)c1ccccn1)(C3)C2)c1cccc(Cl)c1 [Example 6, Pyridine-2-carboxylic acid [3-(3-chloro-benzoylamino)-adamantan-1-yl]-amide]"
2,90 to 99,"N#Cc1cccc(C(=O)NC23CC4CC(C2)CC(NC(=O)c2ccccn2)(C4)C3)c1 [Example 7, Pyridine-2-carboxylic acid[3-(3-cyano-benzoylamino)-adamantan-1-yl]-acid]"
3,90 to 99,"Cn1nc(C(=O)NC23CC4CC(CC(NC(=O)c5ccccn5)(C4)C2)C3)cc1-c1cccs1 [Example 8, Pyridine-2-carboxylic acid {3-[(1-methyl-5-thiophen-2-yl-1H-pyrazole-3-carbonyl)-amino]-adamantan-1-yl}-amide]"
4,90 to 99,"Cn1nc(C(=O)NC23CC4CC(CC(NC(=O)c5ccccn5)(C4)C2)C3)cc1-c1ccco1 [Example 9, Pyridine-2-carboxylic acid {3-[(5-furan-2-yl-1-methyl-1H-pyrazole-3-carbonyl)-amino]-adamantan-1-yl}-amide]"
5,63 to 99,"Cc1ccnc(C(=O)NC23CC4CC(C2)CC(NC(=O)c2cc(C)ccn2)(C4)C3)c1 [Example 11, N,N′-(1,3-Adamantylene)bis(4-methyl-pyridine-2-carboxamide)]"
6,63 to 99,"Cn1ccc(C(=O)NC23CC4CC(C2)CC(NC(=O)c2ccn(C)n2)(C4)C3)n1 [Example 17, N,N′-(1,3-Adamantylene)bis(1-methyl-1H-pyrazole-3-carboxamide)]"
7,63 to 99,"Cc1cnc(C(=O)NC23CC4CC(C2)CC(NC(=O)c2ccn(C)n2)(C4)C3)cn1 [Example 18, 5-Methyl-pyrazine-2-carboxylic acid {3-[(1-methyl-1H-pyrazole-3-carbonyl)-amino]-adamantan-1-yl}-amide]"
8,63 to 99,"Cc1cccc(C(=O)NC23CC4CC(C2)CC(NC(=O)c2ccn(C)n2)(C4)C3)n1 [Example 20, 6-Methyl-pyridine-2-carboxylic acid {3-[(1-methyl-1H-pyrazole-3-carbonyl)-amino]-adamantan-1-yl}-amide]"
9,63 to 99,"Cc1cccc(C(=O)NC23CC4CC(C2)CC(NC(=O)c2cncc(C)n2)(C4)C3)n1 [Example 21, 6-Methyl-pyrazine-2-carboxylic acid {3-[(6-methyl-pyridine-2-carbonyl)-amino]-adamantan-1-yl}-amide]"
